Like-named read-outs stand apart in the source and are kept apart here.
Columns and labels:
brain = details: in vivo; cited from earlier work
[1] = Ionic forms at physiological pH; format: physicochemical
[2] = Biodistribution in normal rats (Table 1); format: in vivo, rat; details: for Bladder, percent of total activity / Carcass, percent of total activity / Intestines, percent of total activity / Kidneys, percent of total activity / Liver, percent of total activity / Stomach, percent of total activity: normal rats
Protocol: Tracheostomy was performed in an anesthetized rat and the left jugular vein was cannulated with one piece of PE-50 tubing for injection of the ^99m Tc radiopharmaceutical. The bladder was catheterized utilizing heat flared PE-50 tubing for urine collection. […] Each animal was sacrificed at the conclusion of the dynamic study and simultaneous static images of the isolated lungs, heart, liver, spleen, stomach, kidneys, bowel and bladder with urine were acquired as well as a static image of the rat carcass without the organs. Total counts for the injected dose were determined from the sum of the isolated organ counts and the carcass counts decay corrected to the time of organ imaging. Regions of interest were drawn around each organ to determine the percent injected dose in each organ.

kidney = experiment: Renal clearance and extraction efficiency in rats; format: in vivo, rat; details: technetium or rhenium chelate
Protocol: Clearance was determined by averaging three clearances based on three successive 10 minute urine collections. Clearance=UV/P where U is the urine concentration, V is the urine volume, and P is the plasma concentration. To measure extraction efficiency (EE), a left renal venous blood (0.5 ml) sample was obtained followed by a 3-ml carotid arterial sample. Both blood samples were centrifuged within 5 minutes to obtain a plasma sample. The extraction efficiency was calculated by measuring the difference between the arterial and venous blood sample: EE=(arterial concentration--venous concentrationlarterial concentration). Plasma protein binding (PPB) was determined by ultracentrifugation (Centrifree, Amicon, Inc., Beverly, Mass., micropartition system) of 1 ml arterial plasma. PPB=[1.0-(ultrafiltrate concentration/plasma concentration)]×100.

[3] = Normal volunteer studies: plasma clearance, urinary excretion, imaging; format: in vivo, human; details: humans; for Clearance rate (EC/OIH): relative to coinjected OIH
Protocol: ^99m Tc LL-EC, DD-EC and DL-EC were each evaluated in three normal male volunteers. The HPLC purified complexes and phosphate-buffered saline (pH 7.0) were passed through a SEP-PAK Plus C18 cartridge (primed with 1 ml ethanol) and a sterile Millex-GS 0.22 μm filter unit into a sterile, pyrogen-free empty vial. The final concentration was ~2.0 mCi/2.5 ml and the final pH ranged from 5.7 to 7.4. Test samples of each complex were sterile and pyrogen free. Approximately 2 mCi of each ^99m Tc complex were coinjected with 200 μCi of I-131 OIH and plasma samples were obtained at 5, 10, 15, 20, 30 45, 60 and 90 minutes post injection. The plasma clearances of 1-131 OIH and each EC complex were determined using the single injection, two-compartment model of Sapirstein et al., (1955) Am. J. Physiol. 181: 330-336. The volunteers voided at 30, 90 and 180 minutes post injection to determine the percent dose in the urine at each time period. A urine sample from the 30 minute urine collection was obtained for HPLC analysis from one of the normal volunteers and analyzed for each complex. One volunteer was imaged with each complex using a simultaneous acquisition with a 20% window centered over the 363 KeV photopeak of I-131 and a second 20% window over the 140 KeV photopeak of ^99m Tc. Data were acquired in a 128×128 matrix using a three phase dynamic acquisition: phase 1 consisted of 24 two second frames, phase 2 consisted of 16 fifteen second frames and phase 3 consisted of 40 thirty second frames. Data were acquired using a general Electric (Milwaukee, Wis.) Star-Cam computer fitted with a high energy collimator. All studies were performed with the approval of the Human Investigations Committee and a signed consent form was obtained.

[4] = cited from earlier work
[5] = mice, baboons, volunteers; cited from earlier work
plasma protein = details: cited from earlier work
[6] = Stability of thiourea chelates; format: physicochemical
[7] = cited from earlier work; remark: listed apart in the source
[8] = mice and baboons; cited from earlier work
kidneys = details: in vivo; cited from earlier work
[9] = cited from earlier work; remark: listed apart in the source

^99m Tc L,L-ethylenedicysteine diethyl ester [^99m Tc LL-ECD]
Brain perfusion (brain): good brain perfusion agent

O=C(O)[C@@H](CS)NCCN[C@H](CS)C(=O)O [D,D-EC, D,D-ethylenedicysteine]
Dianionic form at physiological pH [1]: 80%
Monoanionic form at physiological pH [1]: 20%
Bladder, percent of total activity ([2]; 22 minutes post injection): 63.2% of total activity
Carcass, percent of total activity ([2]; 22 minutes post injection): 25.4% of total activity
Intestines, percent of total activity ([2]; 22 minutes post injection): 2.6% of total activity
Kidneys, percent of total activity ([2]; 22 minutes post injection): 5.4% of total activity
Liver, percent of total activity ([2]; 22 minutes post injection): 2.9% of total activity
Stomach, percent of total activity ([2]; 22 minutes post injection): < 1% of total activity
Removal/excretion by the kidneys, in words ([2]; rats): more rapid renal clearance than ^99m Tc MAG3
Removal/excretion by the kidneys, in words ([2]; rats, listed as 99m Tc-D,D-EC): superior to L,L-EC in rats
Renal clearance, in words (kidney): significantly higher than that of its LL-isomer and than that of ^99m Tc MAG3
Clearance rate (EC/OIH) [3]: 82±8%

O=C(O)CNC(=O)c1ccccc1[131I] [OIH, ^131 I-orthohippurate]
Clearance relative to p-aminohippuric acid (PAH) ([4]; percent of PAH clearance): 83%

C[C@H](NC(=O)CNC(=O)CS)C(=O)NCC(=O)O [MAGAG, mercaptoacetylglycylalanylglycine]
Comparison with ^99m Tc MAG3 [5]: one diastereomer comparable and the other considerably inferior

O=C(O)C(CS)NCCNC(CS)C(=O)O (stereo not drawn) [EC, ethylene dicysteine]
Protein binding characteristics (plasma protein): favorable protein binding characteristics

CC(C)(S)C(=O)NCCCNC(=S)NCCC(=O)O [(Me)2 -TAPTU-EtCOOH, dimethylthioacetamidepropylthiourea-ethylCOOH]
Stability compared with the corresponding thioacetamidethiourea derivative [6]: greater stability than the corresponding thioacetamide-thiourea derivative
Stability compared with the corresponding thioacetamidethiourea derivative ([6]; listed as dimethyl-TAPTU-EtCOOH): appeared to be more stable than the corresponding thioacetamidethiourea derivative

L-cysteinylethylenepyridine carboxamide [L-CEPIC]
Bladder, percent of total activity ([2]; 30 minutes post injection): 58.2% of total activity
Carcass, percent of total activity ([2]; 30 minutes post injection): 19.8% of total activity
Intestines, percent of total activity ([2]; 30 minutes post injection): 6.4% of total activity
Kidneys, percent of total activity ([2]; 30 minutes post injection): 7.2% of total activity
Liver, percent of total activity ([2]; 30 minutes post injection): 4.8% of total activity
Stomach, percent of total activity ([2]; 30 minutes post injection): 1.9% of total activity
Removal/excretion by the kidneys, in words ([2]; rats): rapid and selective removal of the test compounds by the kidneys
Uptake in other major organs ([2]; rats): only trace amounts being taken up in other major organs
Removal/excretion by the kidneys, in words ([2]; rats, listed as 99m Tc-CEPIC): even more rapidly excreted by the kidneys than ^99m Tc MAG3
Renal clearance, in words (kidney): renal clearance efficiency similar to that of ^99m Tc MAG3

^99m Tc mercaptoacetyl-glycylglycyl-taurine
Comparison with ^99m Tc MAG3 in dogs [7]: inferior to ^99m Tc MAG3 in dogs

O=C([O-])[C@H](C[S-])NCCN[C@@H](CS)C(=O)[O-].[O]=[Tc+3] [L,L-EC, L,L-ethylenedicysteine]
Dianionic form at physiological pH [1]: 80%
Monoanionic form at physiological pH [1]: 20%
Comparison with ^99m Tc DD-EC [8]: superior to the enantiomer ^99m Tc DD-EC
Pharmacokinetic properties compared with OIH and MAG3 [8]: more closely approached those of OIH than the properties of MAG3
Bladder, percent of total activity ([2]; 22 minutes post injection): 45.6% of total activity
Carcass, percent of total activity ([2]; 22 minutes post injection): 22.6% of total activity
Intestines, percent of total activity ([2]; 22 minutes post injection): 1.8% of total activity
Kidneys, percent of total activity ([2]; 22 minutes post injection): 24.4% of total activity
Liver, percent of total activity ([2]; 22 minutes post injection): 4.5% of total activity
Stomach, percent of total activity ([2]; 22 minutes post injection): < 1% of total activity
Clearance rate (EC/OIH) [3]: 70±3%

O=C(O)CNC(=O)CNC(=O)CNC(=O)CS [MAG3, mercaptoacetyltriglycine]
Plasma-protein binding, in words (plasma protein): very high
Bladder, percent of total activity ([2]; 22 minutes post injection): 57% of total activity
Carcass, percent of total activity ([2]; 22 minutes post injection): 14% of total activity
Intestines, percent of total activity ([2]; 22 minutes post injection): 5% of total activity
Kidneys, percent of total activity ([2]; 22 minutes post injection): 23% of total activity
Liver, percent of total activity ([2]; 22 minutes post injection): 1% of total activity
Stomach, percent of total activity ([2]; 22 minutes post injection): < 1% of total activity
Extraction rate (kidneys): favorably high extraction rate
Transport into the small intestine via the hepatobiliary system ([9]; normal volunteers): a small percentage
Transport into the small intestine via the hepatobiliary system ([9]; patients with renal failure): this percentage increases in patients with renal failure
Clearance compared to DTPA ([4]; in vivo): higher clearance of MAG3 compared to DTPA
Clearance relative to OIH ([4]; percent of OIH clearance): 50-60%

D,L-ethylenedicysteine [DL-EC]
Rate of excretion in the urine [3]: had a slower rate of excretion
Clearance rate (EC/OIH) [3]: 40±5%

thioacetamidethiourea-ethylCOOH [TATU-EtCOOH]
Renal clearance, in words (kidney): superior renal clearance in rats when compared to a corresponding metal chelate with MAG3

thioacetamidethiourea-para-phenylCOOH [TATU-pPhCOOH]
Renal clearance, in words (kidney): cleared at a moderate rate by the kidneys in rat
Renal clearance, in words (kidney; listed as TATU-pPh): cleared at a moderate rate

Reference: patent US5986074A, “Metal chelates as pharmaceutical imaging agents, processes of making such and uses thereof” (Emory University, priority 1997, dated 1999)
